Literature values in US20040072789A1, “Veterinary composition for the topical treatment of traumatized or inflamed skin” (priority 2000, published 2004).

Tested on: fungal infections of the skin

## COC1=CC(=O)C[C@@H](C)[C@]12Oc1c(Cl)c(OC)cc(OC)c1C2=O [griseofulvin]
  effect of topical administration on fungal infections of the skin: very limited effect
